Data as given in the NIST ThermoML archive (doi:10.1016/j.tca.2016.02.005).

Columns and labels:
[1] = 101.3 kPa, Liquid; for speed of sound: Frequency=3 MHz, Sing-around technique in a fixed-path interferometer; for mass density: Vibrating tube method
[2] = refractive index (Na D-line) (dimensionless); settings: 101.3 kPa, Liquid, Standard Abbe refractometry
[3] = xn = mol fraction of the nth substance listed; settings: 101.3 kPa, Liquid, x1 = 1; for speed of sound: Frequency=3 MHz, Sing-around technique in a fixed-path interferometer; for mass density: Vibrating tube method
[4] = refractive index (Na D-line) (dimensionless); xn = mol fraction of the nth substance listed; settings: 101.3 kPa, Liquid, Standard Abbe refractometry, x1 = 1

COCCO [2-methoxyethan-1-ol]
Settings | mass density, [1] [kg/m3] | refractive index, [2] | speed of sound, [1] [m/s]
298.15 K | 960.9 | 1.4003 | 1345.8
308.15 K | 951.7 | 1.3961 | 1311.3
318.15 K | 942.7 | 1.3917 | 1276.4
328.15 K | 933.4 | 1.3876 | 1241.9

CCn1cc[n+](C)c1.F[B-](F)(F)F [1-ethyl-3-methylimidazolium tetrafluoroborate] + COCCO
Settings | mass density, [3] [kg/m3] | refractive index, [4] | speed of sound, [3] [m/s]
298.15 K | 1277.6 | 1.4103 | 1622.9
308.15 K | 1269.9 | 1.4077 | 1599.5
318.15 K | 1262.1 | 1.4051 | 1576.5
328.15 K | 1254.6 | 1.4023 | 1553.8

CCn1cc[n+](C)c1.F[B-](F)(F)F [1-ethyl-3-methylimidazolium tetrafluoroborate]
Settings | mass density, [1] [kg/m3] | refractive index, [2] | speed of sound, [1] [m/s]
298.15 K | 1277.6 | 1.4103 | 1622.9
308.15 K | 1269.9 | 1.4077 | 1599.5
318.15 K | 1262.1 | 1.4051 | 1576.5
328.15 K | 1254.6 | 1.4023 | 1553.8
